Inconclusive results and toxic doses are left out. Rule as the data show it: active = T/C of 150% or more; inactive = T/C below 125%.
System: L1210 leukemia ip in BDF1 mice, survival T/C
Assay: NCI In Vivo Anticancer Drug Screen. Data for tumor model L1210 Leukemia (intraperitoneal) in B6D2F1 (BDF1) mice
Details: endpoint: mean survival time, higher = longer survival
In short: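 Each compound was tested against a transplantable tumor grown in mice. The endpoint was survival, with treated animals benchmarked against vehicle controls as a simple ratio.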

[1] = dose: 25.0 mg/kg/injection, schedule: Q01DX009 (ip), vehicle: saline
[2] = dose: 50.0 mg/kg/injection, schedule: Q01DX009 (ip), vehicle: saline
[3] = dose: 100.0 mg/kg/injection, schedule: Q01DX009 (ip), vehicle: saline with Tween-80
[4] = dose: 200.0 mg/kg/injection, schedule: Q01DX009 (ip), vehicle: saline with Tween-80
[5] = dose: 400.0 mg/kg/injection, schedule: Q01DX009 (ip), vehicle: saline with Tween-80
[6] = dose: 100.0 mg/kg/injection, schedule: Q04DX003 (ip), vehicle: Klucel (hydroxypropylcellulose) (HPC)
[7] = dose: 200.0 mg/kg/injection, schedule: Q04DX003 (ip), vehicle: Klucel (hydroxypropylcellulose) (HPC)
[8] = dose: 400.0 mg/kg/injection, schedule: Q04DX003 (ip), vehicle: Klucel (hydroxypropylcellulose) (HPC)
[9] = dose: 50.0 mg/kg/injection, schedule: Q01DX001 (ip), vehicle: saline
[10] = dose: 100.0 mg/kg/injection, schedule: Q01DX001 (ip), vehicle: saline
[11] = dose: 200.0 mg/kg/injection, schedule: Q01DX001 (ip), vehicle: saline
[12] = dose: 100.0 mg/kg/injection, schedule: Q01DX009 (ip), vehicle: Klucel (hydroxypropylcellulose) (HPC)
[13] = dose: 200.0 mg/kg/injection, schedule: Q01DX009 (ip), vehicle: Klucel (hydroxypropylcellulose) (HPC)
[14] = dose: 400.0 mg/kg/injection, schedule: Q01DX009 (ip), vehicle: Klucel (hydroxypropylcellulose) (HPC)
[15] = dose: 25.0 mg/kg/injection, schedule: Q01DX009 (ip), vehicle: Klucel (hydroxypropylcellulose) (HPC)
[16] = dose: 50.0 mg/kg/injection, schedule: Q01DX009 (ip), vehicle: Klucel (hydroxypropylcellulose) (HPC)

Measured: T/C

CN(C)Cc1ccc([N+](=O)[O-])cc1
inactive: [1] 93 % of control | [2] 98 % of control | dose: 75.0 mg/kg/injection, schedule: Q01DX001 (ip), vehicle: other 98 % of control | dose: 100.0 mg/kg/injection, schedule: Q01DX009 (ip), vehicle: saline 101 % of control | dose: 100.0 mg/kg/injection, schedule: Q04DX003 (ip), vehicle: saline 95 % of control | dose: 200.0 mg/kg/injection, schedule: Q01DX009 (ip), vehicle: saline 96 % of control | dose: 200.0 mg/kg/injection, schedule: Q04DX003 (ip), vehicle: saline 87 % of control

OCC1CC=CCC1 (stereo not drawn)
inactive: [3] 105 % of control | [4] 106 % of control | [5] 117 % of control

O=C1OCCC1C(=O)C(O)(C(F)(F)F)C(F)(F)F (stereo not drawn)
inactive: dose: 100.0 mg/kg/injection, schedule: Q01DX009 (ip), vehicle: other 96 % of control | dose: 200.0 mg/kg/injection, schedule: Q01DX009 (ip), vehicle: other 100 % of control | dose: 400.0 mg/kg/injection, schedule: Q01DX009 (ip), vehicle: other 94 % of control

O=[N+]([O-])c1cccc(S(=O)(=O)NNc2cccc(Cl)c2)c1
inactive: [6] 94 % of control | [7] 94 % of control | [8] 98 % of control

COc1ccc(C(SCC(NC(=O)OCc2ccccc2)C(=O)O)c2ccc(OC)cc2)cc1 (stereo not drawn)
inactive: dose: 75.0 mg/kg/injection, schedule: Q01DX001 (ip), vehicle: carboxymethylcellulose (CMC) 91 % of control | dose: 150.0 mg/kg/injection, schedule: Q01DX001 (ip), vehicle: carboxymethylcellulose (CMC) 91 % of control | dose: 300.0 mg/kg/injection, schedule: Q01DX001 (ip), vehicle: carboxymethylcellulose (CMC) 89 % of control

CCCCCCCCCCCCCC[N+](C)(C)CCCCCCCCCCCCCC
inactive: dose: 12.5 mg/kg/injection, schedule: Q01DX009 (ip), vehicle: saline 108 % of control | dose: 12.5 mg/kg/injection, schedule: Q04DX003 (ip), vehicle: saline 104 % of control | [1] 106 % of control | dose: 25.0 mg/kg/injection, schedule: Q04DX003 (ip), vehicle: saline 105 % of control | [2] 90 % of control | dose: 50.0 mg/kg/injection, schedule: Q04DX003 (ip), vehicle: saline 102 % of control

CCCCCCCC(=O)N1C2CN3C4=C(C(=O)C(N)=C(C)C4=O)C(COC(N)=O)C3(OC)C21 (stereo not drawn)
inactive: dose: 6.6 mg/kg/injection, schedule: Q01DX001 (ip), vehicle: acetone 115 % of control | dose: 9.9 mg/kg/injection, schedule: Q01DX001 (ip), vehicle: acetone 113 % of control

NC(=O)/C(=C\c1ccc(N=Nc2ccc(/C=C(\C(N)=O)c3cccc4ccccc34)cc2)cc1)c1cccc2ccccc12
inactive: [6] 93 % of control | [7] 99 % of control | [8] 89 % of control

CC(=O)ON1C(=O)c2ccccc2C1=O
inactive: [9] 102 % of control | [10] 100 % of control | [11] 102 % of control

O=c1cc(I)[nH]c(=O)[nH]1
inactive: dose: 73.0 mg/kg/injection, schedule: Q01DX Z (ip), vehicle: methylcellulose (MC) 100 % of control | dose: 111.0 mg/kg/injection, schedule: Q01DX Z (ip), vehicle: methylcellulose (MC) 96 % of control | dose: 165.0 mg/kg/injection, schedule: Q01DX Z (ip), vehicle: methylcellulose (MC) 102 % of control | dose: 248.0 mg/kg/injection, schedule: Q01DX Z (ip), vehicle: methylcellulose (MC) 110 % of control

O=C(O)c1ccccc1NC(C(=O)O)c1ccccc1 (stereo not drawn)
inactive: dose: 100.0 mg/kg/injection, schedule: Q04DX002 (ip), vehicle: saline with Tween-80 100 % of control | dose: 200.0 mg/kg/injection, schedule: Q04DX002 (ip), vehicle: saline with Tween-80 96 % of control | dose: 400.0 mg/kg/injection, schedule: Q04DX002 (ip), vehicle: saline with Tween-80 96 % of control

C/C=C(/C(=O)c1ccc(-c2ccccc2)cc1)c1ccccc1
inactive: [3] 105 % of control | dose: 100.0 mg/kg/injection, schedule: Q04DX003 (ip), vehicle: saline with Tween-80 95 % of control | [4] 94 % of control | dose: 200.0 mg/kg/injection, schedule: Q04DX003 (ip), vehicle: saline with Tween-80 89 % of control | [5] 90 % of control | dose: 400.0 mg/kg/injection, schedule: Q04DX003 (ip), vehicle: saline with Tween-80 94 % of control

COc1ccc(CSc2ncnc3nc[nH]c23)cc1
inactive: dose: 6.0 mg/kg/injection, schedule: Q01DX015 (ip), vehicle: carboxymethylcellulose (CMC) 92 % of control | dose: 12.0 mg/kg/injection, schedule: Q01DX015 (ip), vehicle: carboxymethylcellulose (CMC) 91 % of control | dose: 25.0 mg/kg/injection, schedule: Q01DX015 (ip), vehicle: carboxymethylcellulose (CMC) 101 % of control | dose: 50.0 mg/kg/injection, schedule: Q01DX015 (ip), vehicle: carboxymethylcellulose (CMC) 101 % of control | dose: 200.0 mg/kg/injection, schedule: Q01DX015 (ip), vehicle: carboxymethylcellulose (CMC) 111 % of control

C=COC1CCCCC1
inactive: [12] 101 % of control | [6] 97 % of control | [13] 100 % of control | [7] 90 % of control | [14] 95 % of control | [8] 88 % of control

CC1(C)OC2C(CO)OC(n3cnc4c(N)ncnc43)C2O1 (stereo not drawn)
inactive: [15] 103 % of control | [16] 98 % of control | [12] 100 % of control | [6] 103 % of control | [7] 103 % of control

CCCCOCN1C(=O)NC(c2ccccc2)(c2ccccc2)C1=O
inactive: dose: 50.0 mg/kg/injection, schedule: Q01DX009 (ip), vehicle: saline with Tween-80 108 % of control | [3] 94 % of control

CC1(N(O)C(=O)NC2CCCCC2)CCCCC1
inactive: dose: 100.0 mg/kg/injection, schedule: Q01DX001 (ip), vehicle: saline with Tween-80 101 % of control | dose: 200.0 mg/kg/injection, schedule: Q01DX001 (ip), vehicle: saline with Tween-80 97 % of control

CCSc1ccc2c(cc1=O)C(NC(=O)NC)CCc1cc(OC)c(OC)c(OC)c1-2 (stereo not drawn)
inactive: [15] 116 % of control | [16] 112 % of control | [12] 92 % of control

CS(=O)(=O)OCCN(CCOS(C)(=O)=O)c1cccc(C(F)(F)F)c1
inactive: dose: 5.0 mg/kg/injection, schedule: Q01DX001 (ip), vehicle: saline 96 % of control | dose: 10.0 mg/kg/injection, schedule: Q01DX001 (ip), vehicle: saline 100 % of control | dose: 11.0 mg/kg/injection, schedule: Q01DX015 (ip), vehicle: saline 101 % of control | dose: 17.0 mg/kg/injection, schedule: Q01DX015 (ip), vehicle: saline 110 % of control | dose: 20.0 mg/kg/injection, schedule: Q01DX001 (ip), vehicle: saline 102 % of control | dose: 25.0 mg/kg/injection, schedule: Q01DX015 (ip), vehicle: saline 116 % of control | [9] 124 % of control | [10] 124 % of control | [11] 120 % of control | dose: 400.0 mg/kg/injection, schedule: Q01DX001 (ip), vehicle: saline 86 % of control

CCOC(=O)C(C)NCc1ccccc1 (stereo not drawn)
inactive: [12] 94 % of control | [6] 98 % of control | [13] 111 % of control | [7] 93 % of control | [14] 103 % of control | [8] 96 % of control

COc1ccc(C(=O)NC(=O)Nc2ccccc2)cc1
inactive: dose: 15.0 mg/kg/injection, schedule: Q01DX001 (ip), vehicle: saline 97 % of control | dose: 30.0 mg/kg/injection, schedule: Q01DX001 (ip), vehicle: saline 91 % of control | dose: 60.0 mg/kg/injection, schedule: Q01DX001 (ip), vehicle: saline 92 % of control

— PubChem BioAssay AID248 (DTP/NCI, 2004)
